Results from ChEMBL document CHEMBL4400552, “Design, synthesis and biological evaluation of novel human monoamine oxidase B inhibitors based on a fragment in an X-ray crystal structure” (Bioorg Med Chem Lett, 2019).

Experiments:
[1] = target: T1, Amine oxidase [flavin-containing] B (Homo sapiens, UniProt P27338); test: Inhibition of human recombinant MAO-B expressed in insect cells at 1 uM using p-tyramine as substrate preincubated for 30 mins followed by substrate addition measured for 15 mins by resorufin dye-based fluorescence assay relative to control; conditions: 0.25 h; for INH: 1 µM; for inhibition at 1 µM: read-out: INH
T1 sequence (P27338 whole entry): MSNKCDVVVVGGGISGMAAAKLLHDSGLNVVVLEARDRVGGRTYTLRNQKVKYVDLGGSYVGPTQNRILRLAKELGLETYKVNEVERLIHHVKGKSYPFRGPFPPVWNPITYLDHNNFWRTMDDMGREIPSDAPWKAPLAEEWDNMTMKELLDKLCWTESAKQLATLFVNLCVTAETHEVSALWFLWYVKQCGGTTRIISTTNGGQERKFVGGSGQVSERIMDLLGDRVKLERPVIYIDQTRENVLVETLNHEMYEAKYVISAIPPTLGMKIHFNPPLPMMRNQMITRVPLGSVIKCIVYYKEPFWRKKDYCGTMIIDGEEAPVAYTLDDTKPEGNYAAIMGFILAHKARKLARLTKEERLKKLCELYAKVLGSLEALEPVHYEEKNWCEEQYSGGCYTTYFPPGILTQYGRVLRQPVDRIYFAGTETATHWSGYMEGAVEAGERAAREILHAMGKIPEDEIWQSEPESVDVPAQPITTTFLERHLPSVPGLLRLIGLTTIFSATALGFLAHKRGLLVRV

[2] = target: T2, Amine oxidase [flavin-containing] A (Homo sapiens, UniProt P21397); test: Inhibition of human recombinant MAO-A expressed in insect cells using p-tyramine as substrate preincubated for 30 mins followed by substrate addition measured for 15 mins by resorufin dye-based fluorescence assay
T2 sequence (P21397 whole entry): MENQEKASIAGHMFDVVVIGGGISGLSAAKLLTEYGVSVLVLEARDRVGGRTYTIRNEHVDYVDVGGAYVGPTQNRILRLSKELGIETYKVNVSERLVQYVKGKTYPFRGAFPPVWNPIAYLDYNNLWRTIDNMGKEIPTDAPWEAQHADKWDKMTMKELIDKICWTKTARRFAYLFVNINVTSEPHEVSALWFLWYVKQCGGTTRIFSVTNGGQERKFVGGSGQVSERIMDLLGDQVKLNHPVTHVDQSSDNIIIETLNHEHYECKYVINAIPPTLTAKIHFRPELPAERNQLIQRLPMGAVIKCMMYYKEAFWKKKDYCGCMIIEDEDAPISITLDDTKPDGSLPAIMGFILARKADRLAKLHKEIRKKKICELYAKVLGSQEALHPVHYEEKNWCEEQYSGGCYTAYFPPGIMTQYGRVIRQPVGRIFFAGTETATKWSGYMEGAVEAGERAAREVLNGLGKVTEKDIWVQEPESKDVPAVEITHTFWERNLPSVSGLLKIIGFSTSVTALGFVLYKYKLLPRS

[3] = target: T1, Amine oxidase [flavin-containing] B; test: Inhibition of human recombinant MAO-B expressed in insect cells using p-tyramine as substrate preincubated for 30 mins followed by substrate addition measured for 15 mins by resorufin dye-based fluorescence assay; format: cell-based
Homo sapiens = species on record: Homo sapiens; test: Selectivity index, ratio of IC50 for human recombinant MAO-A expressed in insect cells to IC50 for human recombinant MAO-B expressed in insect cells

Structure (SMILES)	INH [1]	inhibition at 1 µM [1] [%]	IC50 [2] [µM]	IC50 [3] [µM]	Ratio IC50 (Homo sapiens)
CC(C)=C1C(=O)Nc2ccc(OCCc3ccccc3)cc21	Not Active	–	–	–	–
O=C1Nc2ccc(OCCc3ccc(F)cc3)cc2C1=O	–	68.7	> 500	0.102	> 4900
Cn1c(=O)[nH]c2ccc(OCc3cccc(F)c3)cc21	–	5.36	–	–	–
CC(C)n1c(=O)[nH]c2ccc(OCCOc3ccc(Cl)cc3)cc21	–	18.2	–	–	–
Cn1c(=O)[nH]c2ccc(OCCCc3ccccc3)cc21	–	14	> 500	59.6	> 8.39
COc1ccc(OCCOc2ccc3[nH]c(=O)n(C(C)C)c3c2)cc1	–	15.5	–	–	–
O=C1Cc2cc(OCCc3ccc(F)cc3)ccc2N1	–	18.1	> 500	190	> 2.63
Cn1c(=O)[nH]c2cc(OCc3ccccc3)ccc21	Not Active	–	–	–	–
Cn1c(=O)[nH]c2ccc(OCCc3ccccc3)cc21	Not Active	–	–	–	–
Cn1c(=O)[nH]c2cc(OCCCc3ccccc3)ccc21	Not Active	–	–	–	–
CC1(C)C(=O)Nc2ccc(OCCc3ccccc3)cc21	Not Active	–	–	–	–
CCn1c(=O)[nH]c2ccc(OCCOc3ccc(OC)cc3)cc21	–	13.9	–	–	–
CC(C)=C1C(=O)Nc2ccc(OCCOc3ccccc3)cc21	Not Active	–	–	–	–
CC(C)=C1C(=O)Nc2ccc(OCc3cccc(C)c3)cc21	Not Active	–	–	–	–
Cn1c(=O)[nH]c2ccc(OCc3ccc(Cl)c(Cl)c3)cc21	–	32.4	> 500	7.68	> 65
CCn1c(=O)[nH]c2ccc(OCCOc3ccc(Cl)cc3)cc21	–	7.24	–	–	–
CCn1c(=O)[nH]c2ccc(OCCOc3ccc(C(C)C)cc3)cc21	–	19	> 500	278	> 1.8
Cn1c(=O)[nH]c2ccc(OCCOc3ccc(Cl)cc3)cc21	–	9.94	–	–	–
CC(C)=C1C(=O)Nc2ccc(OCc3ccc(F)cc3)cc21	Not Active	–	–	–	–
Cn1c(=O)[nH]c2ccc(OCCc3ccc(Cl)cc3)cc21	–	19.9	–	–	–
CCn1c(=O)[nH]c2ccc(OCc3cccc(C(F)(F)F)c3)cc21	–	12.5	–	–	–
Cn1c(=O)[nH]c2ccc(OCc3ccccc3)cc21	Not Active	–	–	–	–
Cn1c(=O)[nH]c2cc(OCc3cccc(Cl)c3)ccc21	–	23.4	> 500	34.3	> 14.6
O=C1Cc2cc(OCc3ccc(F)cc3)ccc2N1	–	19.6	> 500	24.9	> 20.1

Structure (SMILES)	INH [1]	inhibition at 1 µM [1] [%]	IC50 [2] [µM]	IC50 [3] [µM]	Ratio IC50 (Homo sapiens)
CC1(C)C(=O)Nc2ccc(OCc3ccc(Cl)c(Cl)c3)cc21	–	28.8	> 500	132	> 3.78
COc1ccc(OCCOc2ccc3c(c2)C(=C(C)C)C(=O)N3)cc1	Not Active	–	–	–	–
CC1(C)C(=O)Nc2ccc(OCc3cccc(Cl)c3)cc21	–	21.1	> 500	279	> 1.79
O=C1Cc2cc(OCc3ccc(Cl)c(Cl)c3)ccc2N1	–	12.4	> 500	17.2	> 29.1
CC(C)n1c(=O)[nH]c2ccc(OCCOc3cccc(F)c3)cc21	–	12.9	–	–	–
CC1(C)C(=O)Nc2ccc(OCc3ccc(F)cc3)cc21	Not Active	–	–	–	–
CCn1c(=O)[nH]c2ccc(OCCOc3cccc(F)c3)cc21	–	30.3	> 500	190	> 2.62
Cc1ccc(COc2ccc3c(c2)C(C(C)C)C(=O)N3)cc1 (configuration not stated)	Not Active	–	–	–	–
O=C1Nc2ccc(OCc3ccc(Cl)c(Cl)c3)cc2C1=O	–	95.7	117	0.003	38900
CCn1c(=O)[nH]c2ccc(OCc3ccc(C(F)(F)F)cc3)cc21	–	22.8	> 500	184	> 2.71
Cn1c(=O)[nH]c2cc(OCCc3ccccc3)ccc21	Not Active	–	–	–	–
CC1(C)C(=O)Nc2ccc(OCCOc3ccccc3)cc21	Not Active	–	–	–	–
Cn1c(=O)[nH]c2ccc(OCc3ccc(Cl)cc3)cc21	–	8.29	> 500	56.4	> 8.87
Cn1c(=O)[nH]c2ccc(OCCc3cccc(Cl)c3)cc21	–	13.7	–	–	–
O=C1Nc2ccc(OCc3ccc(F)cc3)cc2C1=O	–	92.5	235	0.073	3210
Cc1ccc(COc2ccc3c(c2)C(C)C(=O)N3)cc1 (racemic)	Not Active	–	–	–	–
Cc1ccc(COc2ccc3c(c2)C(C)(C)C(=O)N3)cc1	Not Active	–	–	–	–
CCn1c(=O)[nH]c2ccc(OCCCOc3ccccc3)cc21	–	11.3	–	–	–
Cn1c(=O)[nH]c2ccc(OCc3cccc(Cl)c3)cc21	–	8.89	–	–	–
CC(C)C1C(=O)Nc2ccc(OCc3cccc(F)c3)cc21 (configuration not stated)	–	12.7	> 500	397	> 1.62
O=C1Nc2ccc(OCc3cccc(Cl)c3)cc2C1=O	–	93	311	0.046	6760
CC(C)=C1C(=O)Nc2ccc(OCc3cccc(F)c3)cc21	Not Active	–	–	–	–
CC(C)c1ccc(OCCOc2ccc3[nH]c(=O)n(C(C)C)c3c2)cc1	–	14.1	> 500	66.7	> 7.49
CCn1c(=O)[nH]c2ccc(OCCCc3ccccc3)cc21	–	4.56	–	–	–
